Laboratory results from ChEMBL document CHEMBL1765090, “Design and evaluation of fragment-like estrogen receptor tetrahydroisoquinoline ligands from a scaffold-detection approach” (J Med Chem, 2011).

Key:
Estrogen receptor [1] = target: T1, Estrogen receptor (Homo sapiens, UniProt P03372)
T1 sequence (P03372 whole entry): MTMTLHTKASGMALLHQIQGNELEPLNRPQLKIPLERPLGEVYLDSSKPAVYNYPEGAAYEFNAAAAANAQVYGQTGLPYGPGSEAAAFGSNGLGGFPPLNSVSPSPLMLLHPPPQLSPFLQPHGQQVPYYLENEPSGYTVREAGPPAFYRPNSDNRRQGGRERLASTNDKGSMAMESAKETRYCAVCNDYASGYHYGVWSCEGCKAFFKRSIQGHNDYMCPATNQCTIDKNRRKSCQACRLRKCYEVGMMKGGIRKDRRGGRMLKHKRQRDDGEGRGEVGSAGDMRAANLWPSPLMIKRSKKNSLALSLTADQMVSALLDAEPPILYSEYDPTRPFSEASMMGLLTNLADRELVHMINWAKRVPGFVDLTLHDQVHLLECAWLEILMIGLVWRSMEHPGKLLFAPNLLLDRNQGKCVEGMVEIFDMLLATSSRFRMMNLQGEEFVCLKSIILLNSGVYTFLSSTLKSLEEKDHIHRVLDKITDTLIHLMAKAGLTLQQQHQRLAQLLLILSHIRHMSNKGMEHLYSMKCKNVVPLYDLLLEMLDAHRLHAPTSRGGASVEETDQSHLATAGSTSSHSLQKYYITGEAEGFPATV
Description: (§1) Agonist activity at human N-terminal His6-tagged ERalpha receptor LBD expressed in Escherichia coli BL21 (DE3) assessed as induction of SRC1 peptide recruitment after 1 hr by fluorescence polarization assay

Estrogen receptor beta [2] = target: T2, Estrogen receptor beta (Homo sapiens, UniProt Q92731)
Description: (§2) Agonist activity at human N-terminal His6-tagged ERbeta receptor LBD expressed in Escherichia coli BL21 (DE3) assessed as induction of SRC1 peptide recruitment after 1 hr by fluorescence polarization assay

Estrogen receptor [3] = target: T1, Estrogen receptor; remark: listed apart in the source
Description: as §1

Estrogen receptor beta [4] = target: T2, Estrogen receptor beta; remark: listed apart in the source
Description: as §2

[5] = target: T3, Estrogen receptor (Homo sapiens) (UniProt P03372); assay: Transcriptional activation of human ERalpha receptor transfected in human U2OS cells assessed as increase of luciferase activity by estrogen response element-luciferase reporter gene assay relative to control; type: cell-based
T3 sequence (whole entry): T1 sequence (P03372 whole entry)

Estrogen receptor beta [6] = target: T2, Estrogen receptor beta; assay: Transcriptional activation of human ERbeta receptor transfected in human U2OS cells assessed as increase of luciferase activity by estrogen response element-luciferase reporter gene assay relative to control; type: cell-based
Estrogen receptor [7] = target: T1, Estrogen receptor; assay: Transcriptional activation of human ERalpha receptor transfected in human U2OS cells assessed as increase of luciferase activity by estrogen response element-luciferase reporter gene assay; type: cell-based
Estrogen receptor beta [8] = target: T2, Estrogen receptor beta; assay: Transcriptional activation of human ERbeta receptor transfected in human U2OS cells assessed as increase of luciferase activity by estrogen response element-luciferase reporter gene assay; type: cell-based

T2 sequence (Q92731 whole entry): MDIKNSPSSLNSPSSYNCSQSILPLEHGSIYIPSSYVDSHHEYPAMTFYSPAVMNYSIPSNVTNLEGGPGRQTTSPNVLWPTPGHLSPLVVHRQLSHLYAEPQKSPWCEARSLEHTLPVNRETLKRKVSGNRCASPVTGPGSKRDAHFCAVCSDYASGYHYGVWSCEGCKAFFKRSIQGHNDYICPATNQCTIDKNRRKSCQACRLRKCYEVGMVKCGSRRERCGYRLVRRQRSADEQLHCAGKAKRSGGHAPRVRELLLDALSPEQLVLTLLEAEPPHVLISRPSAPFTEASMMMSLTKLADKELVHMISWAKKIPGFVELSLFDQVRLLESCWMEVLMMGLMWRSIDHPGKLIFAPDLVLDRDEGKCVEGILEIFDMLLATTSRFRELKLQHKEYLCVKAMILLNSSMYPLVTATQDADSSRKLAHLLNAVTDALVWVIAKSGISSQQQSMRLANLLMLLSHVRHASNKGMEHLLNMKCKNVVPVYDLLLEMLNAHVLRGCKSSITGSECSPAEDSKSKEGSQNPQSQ

Row | Structure (SMILES) | EC50 (Estrogen receptor [1]) | EC50 (Estrogen receptor [3]) | EC50 (Estrogen receptor beta [4]) | also measured
1 | CS(=O)(=O)N1CCc2ccccc2C1 | Not Active |  |  | EC50 (Estrogen receptor beta [2]): Not Active
2 | O=C(N1CCc2ccccc2C1)C(F)(F)F | Not Active |  |  | EC50 (Estrogen receptor beta [2]): Not Active
3 | CC(=O)N1CCc2cc(O)ccc2C1 | Not Active |  |  | EC50 (Estrogen receptor beta [2]): Not Active
4 | O=S(=O)(c1cccc2ccccc12)N1CCc2cc(O)ccc2C1 |  | 700 µM | 60 µM | 
5 | CC(=O)N1CCc2ccccc2C1 | Not Active |  |  | EC50 (Estrogen receptor beta [2]): Not Active
6 | O=S(=O)(c1cccc2ccccc12)N1CCc2ccc(O)cc2C1 |  | 600 µM | 30 µM | 
7 | Br.Oc1ccc2c(c1)CNCC2 | Not Active |  |  | 
8 | COc1ccc2c(c1)CCN(C(=O)C(F)(F)F)C2 |  | 340 µM | 227 µM | 
9 | O=S(=O)(c1ccccc1)N1CCc2cc(O)ccc2C1 |  |  | 1 µM | 
10 | Br.Oc1cc2c(cc1O)CNCC2 | Not Active |  |  | 
11 | O=C(N1CCc2cc(O)ccc2C1)C(F)(F)F |  | 5.2 µM | 0.9 µM | 
12 | O=C(N1CCc2ccc(O)cc2C1)C(F)(F)F |  | 20 µM | 3.8 µM | 
13 | O=S(=O)(N1CCc2cc(O)ccc2C1)C(F)(F)F |  | 3 µM | 0.6 µM | fold change (FC) [5]: 33; fold change (FC) (Estrogen receptor beta [6]): 7; EC50 (Estrogen receptor [7]): 1.87 µM; EC50 (Estrogen receptor beta [8]): 0.31 µM
14 | O=C(N1CCc2cc(O)ccc2C1)C(Cl)(Cl)Cl |  | 6.2 µM | 3.2 µM | 
15 | Br.Oc1ccc2c(c1)CCNC2 | Not Active |  |  | 
16 | O=C(N1CCc2cc(O)ccc2C1)C(F)(F)Cl |  | 2.3 µM | 1.6 µM | 
17 | CS(=O)(=O)N1CCc2cc(O)ccc2C1 |  | 170 µM | 20 µM | 
18 | CC(C)(C)OC(=O)N1CCc2cc(O)ccc2C1 |  |  | 1.1 µM | 
